Data on 15 compounds can be found in patent US20240239788A1, “SMALL MOLECULE INHIBITORS OF KRAS G12D MUTANT” (Merck Sharp & Dohme LLC, priority 2021, published 2024).

In experiment [1] the target is KRAS protein containing G12D mutation (Homo sapiens (Human), UniProt P01116, G12D). The experiment is described as follows: SOS-catalyzed nucleotide exchange assay (GNE), TR-FRET. The format is biochemical. To be noted: biotinylated KRAS G12D, SOS and GTP, 60-minute incubation. Here is the method:
Compounds are added to this complex and then after a 60-minute incubation time the mixture is treated with SOS and unlabeled GTP. Small molecule inhibitors stabilize the Bodipy-GDP complex whereas the untreated protein rapidly exchanges Bodipy-GDP for unlabeled GTP resulting in reduced TR-FRET signal.
This solution is referred to as biotinylated KRAS G12D stock solution.

Experiment [2] concerns AsPC-1 cells containing homozygous KRAS-G12D activating mutation. Description: Cellular phospho-ERK assay with 10% FBS (Examples 107a-256). The format is cell-based. The method, then:
5% CO2 for 2 hours. […] Assay plates were read on a EnVision Multimode Plate Reader (PerkinElmer) and the ratio of p-Erk vs total Erk in each well was used as the final readout.

The mark [3] stands for this setting: read-out: IC50 (nM) pERK (cell with FBS 10%), AsPC-1 cells, 10% fetal bovine serum, 2 hours, ratio of p-Erk vs total Erk.
Setting [4] is: Homo sapiens, ASPC1, 2 h, read-out: IC50 (nM) pERK (cell with FBS 10%), AsPC-1 cells, 10% fetal bovine serum, 2 hours, ratio of p-Erk vs total Erk.
[5] abbreviates: read-out: IC50 (nM) pERK (cell with FBS 10%), AsPC-1 cells, 10% fetal bovine serum, 2 hours, ratio of p-Erk vs total Erk, TFA.

Where a name gives a salt, the structure may show the parent alone. Read-outs that look alike come from different tables or passages of the source.

Sequence of KRAS protein containing G12D mutation (P01116 other isoform, or with tags, fused parts or gaps G12D (already in the parent)): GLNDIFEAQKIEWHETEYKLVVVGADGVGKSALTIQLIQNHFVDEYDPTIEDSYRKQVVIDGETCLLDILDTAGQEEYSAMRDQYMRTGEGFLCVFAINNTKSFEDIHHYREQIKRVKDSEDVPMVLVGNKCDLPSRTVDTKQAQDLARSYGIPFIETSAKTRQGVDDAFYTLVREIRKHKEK

Consider `C[C@]12CCC(CN(c3nc(OC[C@@]45CCCN4C[C@H](F)C5)nc4c(F)c(-c5cc(O)cc6cc(F)cc(Cl)c56)c(F)cc34)C1)N2` (single isomer, unassigned) [Ex. 180b], for which the IC50 in experiment [1] stood at 744 nM; in experiment [2] (setting [3]), 14200 nM.
For `C[C@]12CCC(CN(c3nc(OC[C@@]45CCCN4C[C@H](F)C5)nc4c(F)c(-c5cc(O)cc(Cl)c5C(F)(F)F)c(F)cc34)C1)N2` (single isomer, unassigned) [Ex. 183a], the IC50 in experiment [1] turned out to be 347 nM; in experiment [2] (setting [3]) it was 6070 nM.
As for `C[C@]12CCC(CN(c3nc(OC[C@@]45CCCN4C[C@H](F)C5)nc4c(F)c(-c5cc(O)cc(Cl)c5C(F)(F)F)c(F)cc34)C1)N2` (single isomer, unassigned) [Ex. 183b], the figures for the IC50 in experiment [1] and in experiment [2] (setting [3]) were 3.95 nM and 190 nM, respectively.
Turning to `C[C@@]12CC[C@H](CN(c3nc(OC[C@@]45CCCN4C[C@H](F)C5)nc4c(F)c(-c5cc(O)cc6cccc(F)c56)c(F)cc34)C1)N2` (single isomer, unassigned) [Ex. 186a], the IC50 came out at 1.49 nM in experiment [1] and 180 nM in experiment [2] (setting [3]).
As to `C[C@@]12CC[C@H](CN(c3nc(OC[C@@]45CCCN4C[C@H](F)C5)nc4c(F)c(-c5cc(O)cc6cccc(F)c56)c(F)cc34)C1)N2` (single isomer, unassigned) [Ex. 186b], the IC50 was 185 nM in experiment [1] and 3780 nM in experiment [2] (setting [3]).
As for `Nc1cc2cccc(Cl)c2c(-c2c(F)cc3c(N4CC5CCC(C4)N5)nc(OC[C@@]45CCCN4C[C@H](F)C5)nc3c2F)n1` (single isomer, unassigned) [Ex. 189a], the IC50 in experiment [1] amounted to 12.8 nM; in experiment [2] (setting [4]) it was 672 nM.
Regarding `C#Cc1cccc2cccc(-c3c(F)cc4c(N5CC6(C)CCC(C)(C5)N6)nc(OC[C@@]56CCCN5C[C@H](F)C6)nc4c3F)c12` (single isomer, unassigned) [Ex. 190a, TFA], the IC50 in experiment [1] stood at 2510 nM; in experiment [2] (setting [5]) it was 30000 nM.
For `C#Cc1cccc2cccc(-c3c(F)cc4c(N5CC6(C)CCC(C)(C5)N6)nc(OC[C@@]56CCCN5C[C@H](F)C6)nc4c3F)c12` (single isomer, unassigned) [Ex. 190b, TFA], the results for the IC50 in experiment [1] and in experiment [2] (setting [5]) were 72 nM and 5830 nM, respectively.
For the compound `Cc1nc(N)c(C)c(-c2c(F)cc3c(N4CC5CCC(C4)N5)nc(OC[C@@]45CCCN4C[C@H](F)C5)nc3c2F)c1C(F)(F)F` (single isomer, unassigned) [Ex. 191a], the IC50 in experiment [1] came out at 26.5 nM; in experiment [2] (setting [3]) it was 288 nM.
Turning to `Cc1nc(N)c(C)c(-c2c(F)cc3c(N4CC5CCC(C4)N5)nc(OC[C@@]45CCCN4C[C@H](F)C5)nc3c2F)c1C(F)(F)F` (single isomer, unassigned) [Ex. 191b], the IC50 in experiment [1] is 2840 nM; in experiment [2] (setting [3]) it was 30000 nM.
On to `C#Cc1cccc2cc(O)c(F)c(-c3c(F)cc4c(N5CC6CC[C@@](C)(C5)N6)nc(OC[C@@]56CCCN5C[C@H](F)C6)nc4c3F)c12` (single isomer, unassigned) [Ex. 192a], for which the IC50 was determined as 1.17 nM in experiment [1] and 114 nM in experiment [2] (setting [3]).
For `C#Cc1cccc2cc(O)c(F)c(-c3c(F)cc4c(N5CC6CC[C@@](C)(C5)N6)nc(OC[C@@]56CCCN5C[C@H](F)C6)nc4c3F)c12` (single isomer, unassigned) [Ex. 192b], the IC50 in experiment [1] stood at 37 nM; in experiment [2] (setting [3]) it was 1570 nM.
For the compound `Cc1cc(N)nc(-c2c(F)cc3c(N4CC5CC[C@@](C)(C4)N5)nc(OC[C@@]45CCCN4C[C@H](F)C5)nc3c2F)c1C(F)(F)F` (single isomer, unassigned) [Ex. 200a], the figures for the IC50 in experiment [1] and in experiment [2] (setting [4]) were 72.9 nM and 1220 nM, respectively.
As to `CN(C)C[C@@]1(COc2nc(N3C[C@H]4CC[C@@H](C3)N4)c3cc(F)c(-c4c(C(F)(F)F)c(Cl)cc5cnn(C)c45)c(F)c3n2)CC1(F)F` (single isomer, unassigned) [Ex. 201b], the IC50 stood at 45.9 nM in experiment [1] and 15600 nM in experiment [2] (setting [4]).
`C#Cc1cccc2nc(N)cc(-c3c(F)cc4c(N5CC6CCC(C5)N6)nc(OC[C@@]56CCCN5C[C@H](F)C6)nc4c3F)c12` (single isomer, unassigned) [Ex. 203a]: the results for the IC50 in experiment [1] and in experiment [2] (setting [3]) were 380 nM and 3020 nM, respectively.
